Laboratory results published in ChEMBL document CHEMBL3885881, “DrugMatrix”.

Species: Rattus norvegicus
Assay: DrugMatrix - Regimen: Daily Repeat
Type: toxicity, organism-based, Sprague-Dawley
Set-up: regimen Daily Repeat, gender Male, age 6-8 weeks
Details: in vivo, po, route oral GAVAGE, vehicle .5 % CMC; for ABSOLUTE BASOPHIL / ABSOLUTE EOSINOPHIL / ABSOLUTE LYMPHOCYTE / ABSOLUTE MONOCYTE / ABSOLUTE SEGMENTED NEUTROPHIL / BASOPHIL / EOSINOPHIL / ERYTHROCYTE COUNT / HEMATOCRIT / HEMOGLOBIN / LEUKOCYTE COUNT / LYMPHOCYTE / MEAN CORPUSCULAR HEMOGLOBIN / MEAN CORPUSCULAR HEMOGLOBIN CONCENTRATION / MEAN CORPUSCULAR VOLUME / MONOCYTE / NEUTROPHIL / NUCLEATED RED BLOOD CELLS / PLATELET COUNT: tissue Blood; for ALANINE AMINOTRANSFERASE / ALBUMIN / ALKALINE PHOSPHATASE / ASPARTATE AMINOTRANSFERASE / BLOOD UREA NITROGEN / CARBON DIOXIDE / CHLORIDE / CHOLESTEROL / CREATINE PHOSPHOKINASE / CREATININE / GLUCOSE / LACTATE DEHYDROGENASE / LIPASE / PHOSPHORUS / POTASSIUM / SODIUM / TOTAL BILIRUBIN / TOTAL PROTEIN / URIC ACID: tissue Plasma
[1] = 47 mg/kg, 120 h, dose level High, time 5 day
[2] = […], 72 h, dose 3.6 mg/Kg, dose level Low, time 3 day
[3] = […], 120 h, dose 3.6 mg/Kg, dose level Low, time 5 day

SMILES: CN(C)C(=O)C(CCN1CCC(O)(c2ccc(Cl)cc2)CC1)(c1ccccc1)c1ccccc1 [LOPERAMIDE]
- ABSOLUTE BASOPHIL [1]: 0 CELLS/uL
- ABSOLUTE EOSINOPHIL [1]: 31.33 CELLS/uL
- ABSOLUTE LYMPHOCYTE [1]: 6903.67 CELLS/uL
- ABSOLUTE MONOCYTE [1]: 106 CELLS/uL
- ABSOLUTE SEGMENTED NEUTROPHIL [1]: 859 CELLS/uL
- BASOPHIL [1]: 0%
- EOSINOPHIL [1]: 0.33%
- ERYTHROCYTE COUNT [1]: 5.64 x10E6/uL
- HEMATOCRIT [1]: 35.1%
- HEMOGLOBIN [1]: 14.03 G/DL
- LEUKOCYTE COUNT [1]: 7.9 x10E3/uL
- LYMPHOCYTE [1]: 87.67%
- MEAN CORPUSCULAR HEMOGLOBIN [1]: 24.93 pg
- MEAN CORPUSCULAR HEMOGLOBIN CONCENTRATION [1]: 40 G/DL
- MEAN CORPUSCULAR VOLUME [1]: 62.3 fL
- MONOCYTE [1]: 1.33%
- NEUTROPHIL [1]: 10.67%
- NUCLEATED RED BLOOD CELLS [1]: 0 /100WBC
- PLATELET COUNT [1]: 1406.33 x10E3/uL
- ALANINE AMINOTRANSFERASE [1]: 93.33 u/L
- ALBUMIN [1]: 4.4 G/DL
- ALKALINE PHOSPHATASE [1]: 365.33 u/L
- ASPARTATE AMINOTRANSFERASE [1]: 91 u/L
- BLOOD UREA NITROGEN [1]: 16 mg/dL
- CARBON DIOXIDE [1]: 30.67 mmol/L
- CHLORIDE [1]: 100.67 MEQ/L
- CHOLESTEROL [1]: 58 mg/dL
- CREATINE PHOSPHOKINASE [1]: 208.67 u/L
- CREATININE [1]: 0.14 mg/dL
- GLUCOSE [1]: 162.67 mg/dL
- LACTATE DEHYDROGENASE [1]: 118.33 u/L
- LIPASE [1]: 7.67 u/L
- PHOSPHORUS [1]: 10.77 mg/dL
- POTASSIUM [1]: 4.92 MEQ/L
- SODIUM [1]: 146.5 MEQ/L
- TOTAL BILIRUBIN [1]: 0.17 mg/dL
- TOTAL PROTEIN [1]: 6.07 G/DL
- URIC ACID [1]: 0.83 mg/dL
- ABSOLUTE BASOPHIL [2]: 0 CELLS/uL
- ABSOLUTE EOSINOPHIL [2]: 192.67 CELLS/uL
- ABSOLUTE LYMPHOCYTE [2]: 13020.33 CELLS/uL
- ABSOLUTE MONOCYTE [2]: 102.67 CELLS/uL
- ABSOLUTE SEGMENTED NEUTROPHIL [2]: 1651 CELLS/uL
- BASOPHIL [2]: 0%
- EOSINOPHIL [2]: 1.33%
- ERYTHROCYTE COUNT [2]: 5.19 x10E6/uL
- HEMATOCRIT [2]: 33.57%
- HEMOGLOBIN [2]: 13.8 G/DL
- LEUKOCYTE COUNT [2]: 14.97 x10E3/uL
- LYMPHOCYTE [2]: 87%
- MEAN CORPUSCULAR HEMOGLOBIN [2]: 26.63 pg
- MEAN CORPUSCULAR HEMOGLOBIN CONCENTRATION [2]: 41.1 G/DL
- MEAN CORPUSCULAR VOLUME [2]: 64.7 fL
- MONOCYTE [2]: 0.67%
- NEUTROPHIL [2]: 11%
- NUCLEATED RED BLOOD CELLS [2]: 0 /100WBC
- PLATELET COUNT [2]: 1302 x10E3/uL
- ALANINE AMINOTRANSFERASE [2]: 64.33 u/L
- ALBUMIN [2]: 4.2 G/DL
- ALKALINE PHOSPHATASE [2]: 426 u/L
- ASPARTATE AMINOTRANSFERASE [2]: 86 u/L
- BLOOD UREA NITROGEN [2]: 16 mg/dL
- CARBON DIOXIDE [2]: 27 mmol/L
- CHLORIDE [2]: 102 MEQ/L
- CHOLESTEROL [2]: 83.33 mg/dL
- CREATINE PHOSPHOKINASE [2]: 331 u/L
- CREATININE [2]: 0.14 mg/dL
- GLUCOSE [2]: 168 mg/dL
- LACTATE DEHYDROGENASE [2]: 198.33 u/L
- LIPASE [2]: 10 u/L
- PHOSPHORUS [2]: 11.93 mg/dL
- POTASSIUM [2]: 5.72 MEQ/L
- SODIUM [2]: 142.8 MEQ/L
- TOTAL BILIRUBIN [2]: 0.13 mg/dL
- TOTAL PROTEIN [2]: 5.63 G/DL
- URIC ACID [2]: 1.23 mg/dL
- ABSOLUTE BASOPHIL [3]: 0 CELLS/uL
- ABSOLUTE EOSINOPHIL [3]: 0 CELLS/uL
- ABSOLUTE LYMPHOCYTE [3]: 11205 CELLS/uL
- ABSOLUTE MONOCYTE [3]: 32.67 CELLS/uL
- ABSOLUTE SEGMENTED NEUTROPHIL [3]: 1129 CELLS/uL
- BASOPHIL [3]: 0%
- EOSINOPHIL [3]: 0%
- ERYTHROCYTE COUNT [3]: 5.52 x10E6/uL
- HEMATOCRIT [3]: 35.23%
- HEMOGLOBIN [3]: 14.13 G/DL
- LEUKOCYTE COUNT [3]: 12.37 x10E3/uL
- LYMPHOCYTE [3]: 91%
- MEAN CORPUSCULAR HEMOGLOBIN [3]: 25.63 pg
- MEAN CORPUSCULAR HEMOGLOBIN CONCENTRATION [3]: 40.13 G/DL
- MEAN CORPUSCULAR VOLUME [3]: 63.87 fL
- MONOCYTE [3]: 0.33%
- NEUTROPHIL [3]: 8.67%
- NUCLEATED RED BLOOD CELLS [3]: 0 /100WBC
- PLATELET COUNT [3]: 1068 x10E3/uL
- ALANINE AMINOTRANSFERASE [3]: 58.33 u/L
- ALBUMIN [3]: 4.3 G/DL
- ALKALINE PHOSPHATASE [3]: 376 u/L
- ASPARTATE AMINOTRANSFERASE [3]: 86.67 u/L
- BLOOD UREA NITROGEN [3]: 13.67 mg/dL
- CARBON DIOXIDE [3]: 33 mmol/L
- CHLORIDE [3]: 101.67 MEQ/L
- CHOLESTEROL [3]: 67.67 mg/dL
- CREATINE PHOSPHOKINASE [3]: 233.67 u/L
- CREATININE [3]: 0.2 mg/dL
- GLUCOSE [3]: 140.33 mg/dL
- LACTATE DEHYDROGENASE [3]: 157.33 u/L
- LIPASE [3]: 9.67 u/L
- PHOSPHORUS [3]: 12.57 mg/dL
- POTASSIUM [3]: 6.47 MEQ/L
- SODIUM [3]: 145.27 MEQ/L
- TOTAL BILIRUBIN [3]: 0.2 mg/dL
- TOTAL PROTEIN [3]: 6.07 G/DL
- URIC ACID [3]: 1.23 mg/dL
